Measured values: patent US11958812B2, “3, 5-disubstituted pyridine and 3, 5-disubstituted pyridazine derivatives and pharmaceutical use of same” (MITSUBISHI TANABE PHARMA CORPORATION, priority 2018, dated 2024)

Target: human recombinant ATX (Homo sapiens, UniProt Q13822)
Assay: Enzyme inhibition test (choline release from LPC, Amplex UltraRed fluorescence)
Assay type: biochemical
Conditions: 200 μM LPC substrate, 1 hr at room temperature, read-out: Experimental Example 1 human ATX IC50
Description: [Enzyme Inhibition Test Method]
A mixture (10 μL) of substrate and a set of choline quantification reagents (200 μM LPC (1-Oleoyl-sn-glycero-3-phosphocholine Sigma #L1881), 25 μM Amplex UltraRed reagent (Invitrogen), 0.1 U/mL Peroxidase (TOYOBO), 1 U/mL Choline oxidase (TOYOBO)), prepared with assay buffer (50 mM Tris (pH 8.0), 140 mM NaCl, 5 mM KCl, 1 mM CaCl2, 1 mM MgCl2, 0.1% BSA (Albumin from bovine serum, SIGMA), 0.0025% Triton X-100), enzyme (0.4 ng/μL human recombinant ATX) (10 μL), compound-containing solution (100 nL) were dispensed to a 384-well plate, incubated at room temperature for 1 hr and the fluorescence (Ex. 525 nm/Em. 598 nm) was measured. As the standard, choline chloride was used. With a blank free of enzyme was taken as inhibitory rate 100%, and a control free of inhibitor as inhibitory rate 0%, the inhibitory rate was calculated, and IC50 value was calculated from the inhibitory activity percentage at each concentration.

Structure (SMILES) | IC50
COc1ccc(-c2cnnc(COc3ccc(C(F)(F)F)cc3)c2)cc1[C@@H]1C[C@H]1C(=O)O (relative stereo) [Example 3, trans-2-[2-methoxy-5-(6-{[4-(trifluoromethyl)phenoxy]methyl}pyridazin-4-yl)phenyl]cyclopropanecarboxylic Acid] | 35 nM
COc1ccc(-c2cnnc(CCc3ccc(OC(F)(F)F)cc3)c2)cc1[C@@H]1C[C@H]1C(=O)O (relative stereo) [Example 4, trans-2-[2-methoxy-5-(6-{2-[4-(trifluoromethoxy)phenyl]ethyl}pyridazin-4-yl)phenyl]cyclopropanecarboxylic Acid] | 17 nM
C[C@@]1(C(=O)O)C[C@H]1[C@H]1CN(c2cncc(OC[C@H]3CC[C@H](C(F)(F)F)CC3)c2)CCO1 (relative stereo) [Example 20, trans-1-methyl-2-[(2S)-4-(5-{[trans-4-(trifluoromethyl)cyclohexyl]methoxy}pyridin-3-yl)morpholin-2-yl]cyclopropanecarboxylic Acid] | 2 nM
O=C(O)/C=C/CC1COCCN1c1cncc(OCc2ccc(OC(F)(F)F)cc2)c1 (single isomer, unassigned) [Example 22-2] | 74 nM
COc1ccc(-c2cnnc(OC[C@H]3CC[C@H](C(F)(F)F)CC3)c2)nc1[C@H]1C[C@]1(C)C(=O)O [Example 7-1, (1S,2S)-2-[3-methoxy-6-(6-{[trans-4-(trifluoromethyl)cyclohexyl]methoxy}pyridazin-4-yl)pyridin-2-yl]-1-methylcyclopropanecarboxylic Acid] | 1 nM
COc1ccc(-c2cnnc(OC[C@H]3CC[C@H](C(F)(F)F)CC3)c2)nc1[C@@H]1C[C@@]1(C)C(=O)O [Example 7-2, (1R,2R)-2-[3-methoxy-6-(6-{[trans-4-(trifluoromethyl)cyclohexyl]methoxy}pyridazin-4-yl)pyridin-2-yl]-1-methylcyclopropanecarboxylic Acid] | 2 nM
O=C(O)[C@H]1C[C@@H]1c1cc(-c2cnnc(OC[C@H]3CC[C@H](C(F)(F)F)CC3)c2)ccn1 [Example 10-1, (1S,2S)-2-[4-(6-{[trans-4-(trifluoromethyl)cyclohexyl]methoxy}pyridazin-4-yl)pyridin-2-yl]cyclopropanecarboxylic Acid] | 1 nM
O=C(O)[C@@H]1C[C@H]1c1cc(-c2cnnc(OC[C@H]3CC[C@H](C(F)(F)F)CC3)c2)ccn1 [Example 10-2, (1R,2R)-2-[4-(6-{[trans-4-(trifluoromethyl)cyclohexyl]methoxy}pyridazin-4-yl)pyridin-2-yl]cyclopropanecarboxylic Acid] | 3 nM
O=C(O)[C@H]1C[C@@H]1c1cc(-c2cncc(OCc3ccc(OC(F)(F)F)cc3)c2)ccn1 [Example 11-1, (1S,2S)-2-(5-{[4-(trifluoromethoxy)benzyl]oxy}-3,4′-bipyridin-2′-yl)cyclopropanecarboxylic Acid] | 10 nM
O=C(O)[C@@H]1C[C@H]1c1cc(-c2cncc(OCc3ccc(OC(F)(F)F)cc3)c2)ccn1 [Example 11-2, (1R,2R)-2-(5-{[4-(trifluoromethoxy)benzyl]oxy}-3,4′-bipyridin-2′-yl)cyclopropanecarboxylic Acid] | 25 nM
CC(C[C@H]1CN(c2cncc(OCc3ccc(OC(F)(F)F)cc3)c2)CCO1)C(=O)O (stereo partly drawn) [Example 17, 2-methyl-3-[(2S)-4-(5-{[4-(trifluoromethoxy)benzyl]oxy}pyridin-3-yl)morpholin-2-yl]propanoic Acid] | 56 nM
O=C(O)CC[C@H]1CN(c2cncc(CCc3ccc(OC(F)(F)F)cc3)c2)CCO1 [Example 18-1, 3-[(2S)-4-(5-{2-[4-(trifluoromethoxy)phenyl]ethyl}pyridin-3-yl)morpholin-2-yl]propanoic Acid] | 133 nM
O=C(O)COC[C@@H]1COCCN1c1cncc(OCc2ccc(OC(F)(F)F)cc2)c1 [Example 21, {[(3S)-4-(5-{[4-(trifluoromethoxy)benzyl]oxy}pyridin-3-yl)morpholin-3-yl]methoxy}acetic Acid] | 56 nM
O=C(O)COC[C@H]1CCCN1c1cncc(OCc2ccc(OC(F)(F)F)cc2)c1 [Example 24, {[(2R)-1-(5-{[4-(trifluoromethoxy)benzyl]oxy}pyridin-3-yl)pyrrolidin-2-yl]methoxy}acetic Acid] | 13 nM
COc1ccc(-c2cncc(/C=C\c3ccc(OC(F)(F)F)cc3)c2)nc1[C@H]1C[C@@H]1C(=O)O [Example 27] | 56 nM
COc1ccc(-c2cncc(/C=C/c3ccc(OC(F)(F)F)cc3)c2)nc1[C@H]1C[C@@H]1C(=O)O [Example 28] | 4 nM
CCOc1ccc(-c2cnnc(OCC3CCN(CC(F)(F)F)CC3)c2)cc1[C@H]1C[C@@H]1C(=O)O [Example 30] | 2 nM
COc1ccc(-c2cncc(OCc3cccc(Cl)c3)c2)cc1C1CC1C(=O)O (centres unmarked) [Example 32] | 26 nM
COc1ccc(-c2cncc(OCc3cccc(OC(F)(F)F)c3)c2)cc1C1CC1C(=O)O (centres unmarked) [Example 33] | 57 nM

Structure (SMILES) | IC50
COc1ccc(-c2cncc(OCc3ccccc3)c2)cc1C1CC1C(=O)O (centres unmarked) [Example 34] | 121 nM
O=C(O)c1ccc2c(c1)N(c1cncc(OC[C@H]3CC[C@H](C(F)(F)F)CC3)c1)CC2 [Example 35] | 1 nM
O=C(O)c1ccc2c(c1)CCN2c1cncc(OCc2ccc(OC(F)(F)F)cc2)c1 [Example 36] | 6 nM
O=C(O)c1ccc2c(c1)N(c1cncc(OCc3ccc(OC(F)(F)F)cc3)c1)CC2 [Example 37] | 8 nM
O=C(O)c1cccc2c1CCN2c1cncc(OCc2ccc(OC(F)(F)F)cc2)c1 [Example 38] | 382 nM
O=C(O)c1ccc2c(c1)OCCN2c1cncc(OCc2ccc(OC(F)(F)F)cc2)c1 [Example 40] | 12 nM
O=C(O)c1ccc2c(c1)CCCN2c1cncc(OCc2ccc(OC(F)(F)F)cc2)c1 [Example 41] | 31 nM
O=C(O)c1ccc(C2CN(c3cncc(OCc4ccc(OC(F)(F)F)cc4)c3)CCO2)cc1 (centres unmarked) [Example 42] | 8 nM
O=C(O)c1cccc(C2CN(c3cncc(OCc4ccc(OC(F)(F)F)cc4)c3)CCO2)c1 (centres unmarked) [Example 43] | 13 nM
O=C(O)c1ccccc1C1CN(c2cncc(OCc3ccc(OC(F)(F)F)cc3)c2)CCO1 (centres unmarked) [Example 44] | 350 nM
COc1ccc(C2CN(c3cncc(OC[C@H]4CC[C@H](C(F)(F)F)CC4)c3)CCO2)cc1C(=O)O (some centres unmarked) [Example 47] | 3 nM
COc1ccc(C2CN(c3cncc(OCC4CCN(CC(F)(F)F)CC4)c3)CCO2)cc1C(=O)O (centres unmarked) [Example 48] | 35 nM
O=C(O)c1ccc(C2CN(c3cncc(OC[C@H]4CC[C@H](C(F)(F)F)CC4)c3)CCO2)cn1 (some centres unmarked) [Example 49] | 3 nM
O=C(O)c1ccc(C2CN(c3cncc(OC[C@H]4CC[C@H](C(F)(F)F)CC4)c3)CCO2)nc1 (some centres unmarked) [Example 50] | 10 nM
O=C(O)c1ccnc(C2CN(c3cncc(OC[C@H]4CC[C@H](C(F)(F)F)CC4)c3)CCO2)c1 (some centres unmarked) [Example 51] | 5 nM
O=C(O)c1cncc(C2CN(c3cncc(OC[C@H]4CC[C@H](C(F)(F)F)CC4)c3)CCO2)c1 (some centres unmarked) [Example 52] | 7 nM
COc1cc(C2CN(c3cncc(OC[C@H]4CC[C@H](C(F)(F)F)CC4)c3)CCO2)cnc1C(=O)O (some centres unmarked) [Example 53] | 1 nM
COc1cc(C2CN(c3cncc(OC[C@H]4CC[C@H](C(F)(F)F)CC4)c3)CCO2)ncc1C(=O)O (some centres unmarked) [Example 54] | 5 nM
Cc1cc(C2CN(c3cncc(OC[C@H]4CC[C@H](C(F)(F)F)CC4)c3)CCO2)cnc1C(=O)O (some centres unmarked) [Example 55] | 2 nM
